Test results taken from paper PMC6952396, “Structural basis for itraconazole-mediated NPC1 inhibition” (Nature Communications, 2020).
“Also recorded” adds a separate entry of the source.

Columns and labels:
NPC1 = target: T1, NPC1 (Cricetulus griseus, UniProt Q9JLG3); conditions: cited from earlier work; for inhibition of P-X cross-linking to NPC1: cultured cells
T1 construct: CHO-7 cells in the medium are deprived of cholesterol to induce the LDL receptors biosynthesis; endogenous in cells; host or cells: CHO-7 cells
T1 sequence (Q9JLG3 23-1277): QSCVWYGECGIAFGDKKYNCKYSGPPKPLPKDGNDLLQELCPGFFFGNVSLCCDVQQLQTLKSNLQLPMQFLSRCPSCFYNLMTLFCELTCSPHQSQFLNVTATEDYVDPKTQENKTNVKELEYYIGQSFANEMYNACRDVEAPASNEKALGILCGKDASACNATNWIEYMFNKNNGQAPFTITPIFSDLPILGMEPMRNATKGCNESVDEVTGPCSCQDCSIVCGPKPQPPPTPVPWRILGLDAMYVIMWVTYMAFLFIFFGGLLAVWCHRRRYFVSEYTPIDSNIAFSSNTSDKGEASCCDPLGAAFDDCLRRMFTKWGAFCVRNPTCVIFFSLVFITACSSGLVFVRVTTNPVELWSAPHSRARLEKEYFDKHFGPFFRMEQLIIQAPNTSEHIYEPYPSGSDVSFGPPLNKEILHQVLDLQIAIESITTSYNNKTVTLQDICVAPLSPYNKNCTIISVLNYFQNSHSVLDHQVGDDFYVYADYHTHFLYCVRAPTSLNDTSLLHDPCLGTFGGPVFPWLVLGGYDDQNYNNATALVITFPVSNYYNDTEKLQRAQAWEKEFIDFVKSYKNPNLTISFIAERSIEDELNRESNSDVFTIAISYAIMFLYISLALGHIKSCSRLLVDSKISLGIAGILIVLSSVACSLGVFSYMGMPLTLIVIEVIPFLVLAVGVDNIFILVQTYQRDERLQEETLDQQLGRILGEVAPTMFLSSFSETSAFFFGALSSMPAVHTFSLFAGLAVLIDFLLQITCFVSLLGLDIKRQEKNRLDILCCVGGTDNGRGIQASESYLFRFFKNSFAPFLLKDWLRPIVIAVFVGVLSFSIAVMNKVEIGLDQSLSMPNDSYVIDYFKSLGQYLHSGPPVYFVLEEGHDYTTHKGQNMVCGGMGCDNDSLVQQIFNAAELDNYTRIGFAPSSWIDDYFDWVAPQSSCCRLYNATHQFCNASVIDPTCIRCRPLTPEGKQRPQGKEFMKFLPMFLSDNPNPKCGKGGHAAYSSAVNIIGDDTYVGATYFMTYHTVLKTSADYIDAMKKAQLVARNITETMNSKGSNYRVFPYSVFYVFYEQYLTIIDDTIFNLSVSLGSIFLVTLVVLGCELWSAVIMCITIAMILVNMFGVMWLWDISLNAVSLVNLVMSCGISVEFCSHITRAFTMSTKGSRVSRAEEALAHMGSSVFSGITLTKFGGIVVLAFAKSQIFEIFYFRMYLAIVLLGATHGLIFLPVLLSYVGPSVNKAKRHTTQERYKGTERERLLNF

human NPC1 = tested on: T2, human NPC1; test: P-X cross-linking to purified NPC1; assay type: binding; conditions: for competition with cross-linking of P-X to purified NPC1: 0.3 μM P-X, amphipol-reconstituted NPC1 without detergent, in-gel fluorescence
T2 construct: Strep-tag; made in house; host or cells: HEK-293S GnTI- cells (baculovirus-mediated transduction)
Protocol: To determine the binding site for itraconazole on NPC1, we expressed and purified the NPC1 protein using n-dodecyl β-D-maltoside (DDM) as the detergent. The protein was then incorporated into amphipol A8-35 and the detergent was removed with bio-beads and further separated by gel filtration in phosphate buffered saline (PBS).
For Cross-Linking of P-X to purified NPC1 protein, each reaction contained 0.5 μg of indicated protein, 0.3 μM P-X, and various amounts of itraconazole in a final volume of 100 μL of buffer containing 50 mM Hepes pH7.5 and 150 mM NaCl with or without 0.1% Digitonin (Calbiochem). After incubation for 1 h at 37 °C, the mixture was subjected to UV cross-linking for 10 min and then tagged with Alexa Fluor 532 by means of copper-catalyzed azide-alkyne cycloaddition (click chemistry)[22],[41]. The reactions were carried out by mixing an aliquot of each mixture (50 μL), in a final volume of 58.5 μL, with 3 μL of 1.7 mM Tris[(1-benzyl-1H-1,2,3-triazol-4-yl) methyl] amine (TBTA), 2 μL of 50 mM CuSO4, 1 μL of 50 mM Tris(2-carboxyethyl) phosphine (TCEP), 1.5 μL 10% SDS and 1 μL of 1.25 mM Alexa Fluor 532 azide. The mixture was incubated at room temperature for 1 h.
To visualize the fluorescent-labeled proteins by in-gel fluorescence, 20 μL. aliquots of each sample were mixed with 4x loading dye and subjected to 8% SDS/PAGE, after which the gels were scanned with a Typhoon image scanner (GE Healthcare; filter setting: excitation, […]; emission, 555 nm; high sensitivity). After scanning the gel, the proteins were transferred to nitrocellulose and blotted with rabbit monoclonal anti-NPC1 as indicated in the figure legends.
Human NPC1 protein was expressed and purified as previously described, except for using Strep-tag instead of His-tag. Briefly, the protein was expressed using baculovirus-mediated transduction of mammalian HEK-293S GnTI^− cells (ATCC, CRL-3022). At 48 h post infection, the cells were disrupted by sonication in buffer B, containing 20 mM Hepes, pH7.5, 150 mM NaCl with 1 mM PMSF and 5 μg/mL leupeptin. After low speed centrifugation, the resulting supernatant was incubated in buffer B with 1% (w/v) DDM for 1 h at 4 °C. The lysate was centrifuged again, and the supernatant was loaded onto a Strep-Tactin affinity column (IBA). After washing twice, the protein was eluted in 20 mM Hepes, pH7.5, 150 mM NaCl, 2.5 mM desthiobiotin, 0.02% DDM and concentrated. The concentrated protein was further purified by Superdex 200 increase column (GE Healthcare) in buffer B with 0.02% DDM. The peak fractions were mixed with amphipol A8-35 (Anatrace) at 1:3 (w/w) for 4 h. Detergent was removed with Bio-Beads (Bio-Rad) overnight and further separation on a Superdex 200 increase column in PBS (Sigma-Aldrich). […]

C#CCOc1ccc(C(=O)c2ccc(C(=O)OC(C)C(CC)n3ncn(-c4ccc(N5CCN(c6ccc(OCC7COC(Cn8cncn8)(c8ccc(F)cc8F)O7)cc6)CC5)cc4)c3=O)cc2)cc1 (stereo not shown) [P-X]
cross-linking of P-X to NPC1 in cultured cells (NPC1; added at nanomolar concentration): can be cross-linked | cross-linking of P-X to purified NPC1 (human NPC1; amphipol-reconstituted NPC1 in PBS without detergent): can cross-link | cross-linking of P-X to purified NPC1 (human NPC1; protein solubilized in digitonin): not when the protein was solubilized in digitonin

CCC(C)n1ncn(-c2ccc(N3CCN(c4ccc(OCC5COC(Cn6cncn6)(c6ccc(Cl)cc6Cl)O5)cc4)CC3)c(Br)c2)c1=O (stereo not shown) [I-Br]
competition with cross-linking of P-X to purified NPC1 (human NPC1): binds to NPC1 in a similar manner to the itraconazole mixture; also recorded: competes

CCC(C)n1ncn(-c2ccc(N3CCN(c4ccc(OCC5COC(Cn6cncn6)(c6ccc(Cl)cc6Cl)O5)cc4)CC3)cc2)c1=O (stereo not shown) [Itraconazole mixture, itraconazole]
inhibition of P-X cross-linking to NPC1 (NPC1): inhibited | competition with cross-linking of P-X to purified NPC1 (human NPC1): competed

CC(=O)N1CCN(c2ccc(OCC3COC(Cn4ccnc4)(c4ccc(Cl)cc4Cl)O3)cc2)CC1 (stereo not shown) [Ketoconazole, ketoconazole]
inhibition of P-X cross-linking to NPC1 (NPC1): did not block
